In patent US20150238617A1, “SILK RESERVOIRS FOR SUSTAINED DELIVERY OF ANTI-CANCER AGENTS” (TUFTS UNIVERSITY, priority 2012, published 2015):
≈ marks a conversion by molar mass, not a printed value.

Assays:
[1] = cited from earlier work
[2] = cited from earlier work; remark: listed apart in the source
[3] = cited from earlier work; remark: listed apart in the source
[4] = cited from earlier work; remark: listed apart in the source
[5] = in vivo pharmacokinetics, plasma anastrozole by LC-MS/MS; set-up: species or system female Sprague-Dawley rats
Description: A 91-day pharmacokinetic study was conducted on female Sprague-Dawley rats (≧250 g). Test article animals were dosed by a single rod implantation, while positive drug control animals were dosed by a single injection of an ethanol:water (3:7, v/v) solution of equivalent dose. Prior to dosing, all animals were anesthetized by intraperitoneal injection of a cocktail containing ketamine HCl (75 mg/kg) and Xylazine HCl (5 mg/kg). Following anesthesia, the dorsal surface of all animals were shaved and prepared for aseptic administration by wiping with betadine and 70% isopropyl alcohol (3 times each). Animals were placed on a sterile surgical field and covered with Steridrape™. Dosing sites were closed with wound clips. The administration site was circled with indelible ink for future identification of location. Following dosing, all animals were placed in a warmed recovery area and observed until recovered from anesthesia and ambulatory. All animals were observed throughout dosing and each scheduled collection. Body weights were collected weekly in addition to the pre-dose body weight during the duration of the study. Serial blood samples were collected via tail vein or jugular vein at pre-dose, 2 h, 6 h, 24 h (1 d), 2 d, 4 d, 7 d, 10 d, 14 d, 21 d, 28 d, 35 d, 42 d, 49 d, 56 d, 63 d, 70 d, 77 d, 84 d and 91 d and analyzed via LC-MS/MS. Blood samples were stored on wet ice until processed to plasma by centrifugation within 30 min of collection. Plasma were stored at −80° C. until LC-MS/MS analysis.
Briefly, 150 μl of frozen in vivo sample or blank plasma (for double blank, blank and standards) was completely thawed and briefly centrifuged (2000 G, 3 min, 4° C.). […] For extraction, 1 ml diethyl ether:dichloromethane (7:3, v/v) was added to 25 μl of plasma (blank, standard or sample) and 10 μl of aqueous internal standard (100 ng/ml Chlorpheniramine) or deionized water (for double blank) in a glass centrifuge tube using glass serological pipettes and vortexed for 40 s. […]
The auto-sampler of the LC system was kept at 5° C. […] The limit of quantitation (LOQ) was 0.6 ng/ml.

[6] = effective steady state diffusion coefficient from cylindrical silk reservoir; type: physicochemical; details: anastrozole diffusion in silk reservoir rods
Description: and different effective length, le values of 10 or 30 mm.

[7] = stability of anastrozole under in vitro release conditions (LC-MS/MS); details: deionized water, 0.02 wt. % NaN3, 37° C., longest inter-sampling duration 1 week
Description: The release volume was determined to ensure perfect sink conditions in case of a complete burst release according to:
where V, L and S are the release volume, drug loading and aqueous solubility, respectively. At pre-determined time points, 1 ml of the release medium was sampled. After each sampling, the whole medium was exchanged with fresh buffer.

- half-life ([5]; female, Sprague-Dawley, rat, plasma, sc, single s.c. injection of solution, high and low dose, read-out: apparent terminal elimination half-life (converted)): ~6 h
- time of peak plasma concentration ([5]; single s.c. injection of solution (water:ethanol 7:3), high (14 mg) and low (5.8 mg) dose): 6 h
- time to decline to background plasma levels ([5]; single s.c. injection of solution, high and low dose): ≤ 96 h
- effective steady state diffusion coefficient De [6]: 2.4×10^−8 cm^2/s
- degradation of Anastrozole under release conditions [7]: No significant degradation
SMILES: CC(C)(C#N)c1cc(Cn2cncn2)cc(C(C)(C)C#N)c1 [anastrozole]
- terminal elimination half-life t1/2 ([1]; Product Monograph value): 50 h
- volume of distribution V ([1]; Product Monograph value): 74 L
- steady state plasma concentration Css ([1]; factors in reported accumulation): 25 ng/mL
- pKa [2]: 1.4
- water solubility ([3]; at 25° C.): 500 µg/mL (≈ 1700 µM)
- aqueous solubility Cs of anastrozole in water ([3]; value used in diffusion equation): 5000 µg/mL
- log P(octanol/water) [4]: 1.58
